Experimental data as given in US9932637B2, “Genetic polymorphisms associated with cardiovascular disorders and drug response, methods of detection and uses thereof” (CELERA CORPORATION, priority 2003, dated 2018).
“And” between values parts separate entries of the source, which are not always exact repeats. Identical values can stand only once.

Assays:
[1] = tested on: animal models and myocyte cultures; conditions: compared to other hydrophobic statins; cited from earlier work
[2] = tested on: Scottish men with hypercholesterolemia (WOSCOPS); experiment: WOSCOPS nested case-control: coronary events under pravastatin vs placebo by genotype (Tables 11, 13, 15); format: in vivo, human; conditions: for Pravastatin Patients (%) / Pravastatin Patients n/total: WM
Description: Additionally, genetic markers identified as associated with acute coronary events or response to statin treatment for the prevention of coronary events in the CARE samples were also genotyped in a second sample set, the West of Scotland Coronary Prevention Study (WOSCOPS) sample set. […] Participants in the WOSCOPS study were 45-64 years of age and followed for an average of 4.9 years for coronary events. […] Controls were 1160 age and smoking status-matched unaffected patients. All individuals included in the study had signed a written informed consent form and the study protocol was approved by IRB s. DNA was extracted and genotyped as described above.
The data presented in Table 8 based on an association of genotypes with pravastatin efficacy of the CARE samples were further analyzed and presented in Table 13. The further analysis was performed to align the data obtained from the analysis of the CARE samples, which was a prospective study, to the analysis of the WOSCOP samples, which was a case/control study. Table 13 also presents an analysis of the association of genotypes with pravastatin efficacy in the WOSCOPs samples. Relative to the analysis performed on the data presented in Table 8, there are two significant differences to determine if the SNP influenced pravastatin efficacy. Data obtained from the CARE samples were separated by study design into two groups, those in the prospective study design group and those in the case/control study design group. The original care study contained 16 protocol defined cardiovascular disease defined endpoints and 150 other phenotypes. […] The control groups used to compare the data were also divided into two groups, the “all possible” control group and the “cleaner” control group. […] Because the participants in the WOSCOPs trial were all white males, only data obtained from white males in the CARE study were analysed. […] The data from the case/control cohorts were analysed using conditional logistic regression (as opposed to logistic regression used for the original anaylsis).
The anaylsis was refined as described for both Tables 13 and 14.

[3] = CAPN2 hCV781558, WOSCOPS (W) Case/Control, F&NF MI, listed as Pravastatin
[4] = CAPN2 hCV781558, WOSCOPS, Case/Control, F MI/SD/NF MI, listed as Pravastatin
[5] = CCL11 hCV7449808, WOSCOPS (W) Case/Control, F&NF MI
[6] = CCL11 hCV7449808, WOSCOPS, Case/Control, F MI/SD/NF MI
[7] = COL6A2 hCV2811372, WOSCOPS, Case/Control, F MI/SD/NF MI
[8] = COL6A2 hCV2811372, WOSCOPS, Case/Control, F MI/SD/NF MI, listed as Pravastatin
[9] = DDEF1 hCV7686234, WOSCOPS (W) Case/Control, F&NF MI
[10] = FGB hCV7429784, WOSCOPS, Case/Control, F MI/SD/NF MI
[11] = GAPD hCV8921288, WOSCOPS (W) Case/Control, F&NF MI
[12] = GAPD hCV8921288, WOSCOPS, Case/Control, F MI/SD/NF MI
[13] = HRC hCV11506744, 0 Rare Alleles, WOSCOPS Case/Control, F&NF MI, All Possible controls
[14] = HRC hCV11506744, 0 Rare Alleles, WOSCOPS Case/Control, F&NF MI, Cleaner controls
[15] = HRC hCV11506744, 1 Rare Allele, WOSCOPS Case/Control, F&NF MI, All Possible controls
[16] = HRC hCV11506744, 1 Rare Allele, WOSCOPS Case/Control, F&NF MI, Cleaner controls
[17] = HRC hCV11506744, WOSCOPS Case/Control, F&NF MI
[18] = HRC hCV11506744, WOSCOPS, Case/Control, F MI/SD/NF MI, listed as Pravastatin
[19] = IL1A hCV9546471, 0 Rare Alleles, WOSCOPS Case/Control, F&NF MI, All Possible controls
[20] = IL1A hCV9546471, 1 Rare Allele, WOSCOPS Case/Control, F&NF MI, All Possible controls
[21] = IL1A hCV9546471, WOSCOPS Case/Control, F&NF MI
[22] = IL1A hCV9546471, WOSCOPS, Case/Control, F MI/SD/NF MI
[23] = LRP3 hCV25594815, 0 Rare Alleles, WOSCOPS Case/Control, F&NF MI, All Possible controls
[24] = LRP3 hCV25594815, 0 Rare Alleles, WOSCOPS Case/Control, F&NF MI, Cleaner controls
[25] = LRP3 hCV25594815, 1 Rare Allele, WOSCOPS Case/Control, F&NF MI, All Possible controls
[26] = LRP3 hCV25594815, 1 Rare Allele, WOSCOPS Case/Control, F&NF MI, Cleaner controls
[27] = LRP3 hCV25594815, WOSCOPS Case/Control, F&NF MI
[28] = LRP3 hCV25594815, WOSCOPS, Case/Control, F MI/SD/NF MI
[29] = PON1 hCV2548962, 0 rare alleles, WOSCOPS Case/Control, Fatal & Nonfatal MI, Cleaner controls, White Males
[30] = PON1 hCV2548962, 1 rare allele, WOSCOPS Case/Control, Fatal & Nonfatal MI, Cleaner controls, White Males
[31] = PON1 hCV2548962, 2 rare alleles, WOSCOPS Case/Control, Fatal & Nonfatal MI, Cleaner controls, White Males
[32] = WOSCOPS, FCAR genotype GG, placebo group as reference, conditional logistic regression

**Q.** What does the source list for CC[C@H](C)C(=O)O[C@H]1C[C@H](O)C=C2C=C[C@H](C)[C@H](CC[C@@H](O)C[C@@H](O)CC(=O)O)[C@H]21 [pravastatin]?
**A.** myopathic potential [1]: low myopathic potential; Pravastatin vs placebo odds ratio, 1 rare allele ([2]; CAPN2 hCV781558, WOSCOPS (W) Case/Control, F&NF MI): 1.02; 2 Rare Alleles n/total, Pravastatin Patients [2, 3]: 10/41 and 10/39; Pravastatin vs placebo odds ratio, 0 rare alleles [2, 3]: 0.52 and 0.51; Pravastatin vs placebo odds ratio, 1 rare allele [2, 3]: 1.07; Pravastatin vs placebo odds ratio, 2 rare alleles [2, 3]: 0.46 and 0.38; Pravastatin vs placebo odds ratio, 1 rare allele ([2]; CAPN2 hCV781558, WOSCOPS, Case/Control, F MI/SD/NF MI): 1.08; Pravastatin vs placebo odds ratio, 0 rare alleles [2, 4]: 0.46 and 0.45; Pravastatin vs placebo odds ratio, 1 rare allele [2, 4]: 1.03; Pravastatin vs placebo odds ratio, 2 rare alleles [2, 4]: 0.56 and 0.43; 2 Rare Alleles n/total, Pravastatin Patients [2, 5]: 10/24 and 10/22; Pravastatin vs placebo odds ratio, 0 rare alleles [2, 5]: 0.67 and 0.65; Pravastatin vs placebo odds ratio, 1 rare allele [2, 5]: 0.57 and 0.53; Pravastatin vs placebo odds ratio, 2 rare alleles [2, 5]: 6.96 and 7.20; Pravastatin vs placebo odds ratio, 0 rare alleles [2, 6]: 0.63 and 0.62; Pravastatin vs placebo odds ratio, 1 rare allele [2, 6]: 0.50 and 0.46; Pravastatin vs placebo odds ratio, 2 rare alleles [2, 6]: 8.57 and 9.95; Pravastatin vs placebo odds ratio, 0 rare alleles [2, 7]: 0.39; Pravastatin vs placebo odds ratio, 2 rare alleles [2, 7]: 1.04; Pravastatin vs placebo odds ratio, 1 rare allele [2, 8]: 0.62 and 0.59; Pravastatin vs placebo odds ratio, 2 rare alleles [2, 8]: 1.09; 2 Rare Alleles (%), Pravastatin Patients [2, 9]: (25.1%); 2 Rare Alleles n/total, Pravastatin Patients [2, 9]: 42/167; Pravastatin vs placebo odds ratio, 0 rare alleles [2, 9]: 0.45; Pravastatin vs placebo odds ratio, 1 rare allele [2, 9]: 0.68; Pravastatin vs placebo odds ratio, 2 rare alleles [2, 9]: 1.06; 2 rare alleles n/total (%), pravastatin patients [2, 10]: (50.0%); Pravastatin vs placebo odds ratio, 0 rare alleles [2, 10]: 0.63; Pravastatin vs placebo odds ratio, 1 rare allele [2, 10]: 0.52; Pravastatin vs placebo odds ratio, 2 rare alleles [2, 10]: 3.14; 2 Rare Alleles n/total, Pravastatin Patients [2, 11]: 10/26 and 10/23; Pravastatin vs placebo odds ratio, 0 rare alleles [2, 11]: 0.54 and 0.50; Pravastatin vs placebo odds ratio, 1 rare allele [2, 11]: 0.99 and 0.98; Pravastatin vs placebo odds ratio, 2 rare alleles [2, 11]: 1.51 and 1.90; Pravastatin vs placebo odds ratio, 0 rare alleles [2, 12]: 0.50 and 0.46; Pravastatin vs placebo odds ratio, 1 rare allele [2, 12]: 0.88 and 0.89; Pravastatin vs placebo odds ratio, 2 rare alleles [2, 12]: 1.56 and 1.92; Pravastatin Patients (%) [2, 13]: (23.3%); Pravastatin Patients n/total [2, 13]: 59/253; Pravastatin Patients (%) [2, 14]: (25.2%); Pravastatin Patients n/total [2, 14]: 59/234; Pravastatin Patients (%) [2, 15]: (18.0%); Pravastatin Patients n/total [2, 15]: 65/361; Pravastatin Patients (%) [2, 16]: (19.2%); Pravastatin Patients n/total [2, 16]: 65/338; 2 Rare Alleles (%), Pravastatin Patients [2, 17]: (27.6%); 2 Rare Alleles n/total, Pravastatin Patients [2, 17]: 35/127 and 35/118; Pravastatin vs placebo odds ratio, 0 rare alleles [2, 17]: 0.84 and 0.80; Pravastatin vs placebo odds ratio, 1 rare allele [2, 17]: 0.49 and 0.46; Pravastatin vs placebo odds ratio, 2 rare alleles [2, 17]: 1.08; Pravastatin vs placebo odds ratio, 2 rare alleles ([2]; HRC hCV11506744, WOSCOPS, Case/Control, F MI/SD/NF MI): 1.04; Pravastatin vs placebo odds ratio, 0 rare alleles [2, 18]: 0.85 and 0.80; Pravastatin vs placebo odds ratio, 1 rare allele [2, 18]: 0.41 and 0.39; Pravastatin vs placebo odds ratio, 2 rare alleles [2, 18]: 1.05; Pravastatin Patients (%) [2, 19]: (20.8%); Pravastatin Patients n/total [2, 19]: 77/370; Pravastatin Patients (%) [2, 20]: (24.2%); Pravastatin Patients n/total [2, 20]: 74/306; 2 Rare Alleles (%), Pravastatin Patients [2, 21]: (18.3%); 2 Rare Alleles n/total, Pravastatin Patients [2, 21]: 11/60; Pravastatin vs placebo odds ratio, 0 rare alleles [2, 21]: 0.52; Pravastatin vs placebo odds ratio, 1 rare allele [2, 21]: 0.95; Pravastatin vs placebo odds ratio, 2 rare alleles [2, 21]: 0.95; Pravastatin vs placebo odds ratio, 0 rare alleles [2, 22]: 0.46 and 0.45; Pravastatin vs placebo odds ratio, 1 rare allele [2, 22]: 0.91 and 0.85; Pravastatin vs placebo odds ratio, 2 rare alleles [2, 22]: 0.94 and 0.98; Pravastatin Patients (%) [2, 23]: (24.1%); Pravastatin Patients n/total [2, 23]: 133/552; Pravastatin Patients (%) [2, 24]: (26.1%); Pravastatin Patients n/total [2, 24]: 133/509; Pravastatin Patients (%) [2, 25]: (14.5%); Pravastatin Patients n/total [2, 25]: 25/172; Pravastatin Patients (%) [2, 26]: (15.2%); Pravastatin Patients n/total [2, 26]: 25/164; 2 Rare Alleles (%), Pravastatin Patients [2, 27]: (27.3%); 2 Rare Alleles n/total, Pravastatin Patients [2, 27]: 3/11; Pravastatin vs placebo odds ratio, 0 rare alleles [2, 27]: 0.82 and 0.80; Pravastatin vs placebo odds ratio, 1 rare allele [2, 27]: 0.33 and 0.31; Pravastatin vs placebo odds ratio, 2 rare alleles [2, 27]: 1.46 and 1.21; 2 rare alleles n/total (%), pravastatin patients [2, 28]: (27.3%); Pravastatin vs placebo odds ratio, 0 rare alleles [2, 28]: 0.76 and 0.75; Pravastatin vs placebo odds ratio, 1 rare allele [2, 28]: 0.29 and 0.26; Pravastatin vs placebo odds ratio, 2 rare alleles [2, 28]: 2.40 and 1.80; Pravastatin vs. Placebo Odds Ratio (95% CI), Patients with 0 Rare Alleles [2, 29]: 0.84 (0.60 to 1.16); n/total (%) cases, Pravastatin Patients, 0 Rare Alleles [2, 29]: 88/344 (25.6%); Pravastatin vs. Placebo Odds Ratio (95% CI), Patients with 1 Rare Allele [2, 30]: 0.58 (0.40 to 0.84); n/total (%) cases, Pravastatin Patients, 1 Rare Allele [2, 30]: 65/282 (23.1%); Pravastatin vs. Placebo Odds Ratio (95% CI), Patients with 2 Rare Alleles [2, 31]: 0.34 (0.14 to 0.82); n/total (%) cases, Pravastatin Patients, 2 Rare Alleles [2, 31]: 9/53 (17.0%); RR or OR of adverse coronary event, pravastatin vs placebo ([2]; WOSCOPS, CD6 hCV2553030, homozygous for the minor allele): 0.23; OR (odds ratio) of MI associated with Pravastatin ([2]; WOSCOPS, CD6 hCV2553030 genotype Het (TC)): 0.71; OR (odds ratio) of MI associated with Pravastatin ([2]; WOSCOPS, CD6 hCV2553030 genotype Major hom (CC)): 0.66; OR (odds ratio) of MI associated with Pravastatin ([2]; WOSCOPS, CD6 hCV2553030 genotype Minor hom (TT)): 0.23; OR (odds ratio) of MI associated with Pravastatin ([2]; WOSCOPS, CD6 hCV2553030 recessive (TT)): 0.23; OR (odds ratio) of MI associated with Pravastatin ([2]; WOSCOPS; CD6 hCV2553030 recessive TC + CC)ref): 0.68; OR of MI associated with Pravastatin, first of two OR sets printed [2, 32]: 0.66; OR of MI associated with Pravastatin, second of two OR sets printed [2, 32]: 0.65
